This experiment concerns the target T1, Integrin protein αvβ3 (Homo sapiens, UniProt P05106+P06756).
T1 construct: purchased Chemicon International, Inc., Temecula, Calif., USA
The experiment is described as follows: Receptor/ligand challenge assay of biotinylated vitronectin binding to plate-coated integrin αvβ3 (chemiluminescence). The settings on record: for IC50: competition with biotinylated vitronectin for coated αvβ3, 3 hours at room temperature, quadruplicate, 0.00316-1000 nM; for IC50 Ratio Relative to Hood et al.: ratio of IC50 versus the Hood et al. antagonist in the same assay. On the procedure: Receptor/Ligand Challenge Assay of Vitronectin to Integrin αvβ3 Receptor Antagonists in the Presence of Test Compounds
The title compounds of Examples 1 through 8 were tested for their activity as αvβ3 receptor antagonists by the procedure described below, and the buffers, solutions, and reagents used in the procedure are listed following the procedure.
Procedure. Integrin protein αvβ3 (purchased from Chemicon International, Inc., Temecula, Calif., USA) was diluted to a final concentration of 1 μg/mL in coating buffer (2.1). The αvβ3 coating solution was applied to 96-well polystyrene microtiter plate at 100 μL/well. (A total of 10 mL is needed to coat one 96-well plate). The plates were then sealed and allowed to incubate at 4° C. for at least 8 hours. The coating solution was then removed and the plate was washed two times with 300 μL/well of washing solution (2.2). Blocking buffer (2.3) was then added in amounts of 150 μL/well and the plate was incubated at room temperature for 2 hours. The blocking buffer was then removed, and the integrin antagonistic substances (117 μL of 1.25 μM (in H2O)) were added in quadruplicate to column 1 of the twelve well columns of the plate. For example, 117 μL of 1.25 μM 4-[2-(3,4,5,6-tetrahydropyrimidin-2 ylamino)ethyloxy]benzoyl-2-(S)-aminoethylsulfonylamino-β-alanine, the antagonist described by Hood et al. referenced above was added to column 1, rows A-D and 117 μL of 1.25 μM of the antagonist of Example 1 was added to column 1, […]. Binding buffer (2.4) (80 μL) was added to the remaining wells of the plate (column 2-12, rows A-F). A multichannel pipet was used to transfer 37 μL aliquots of the solutions from column 1 to column 2. The solutions were then mixed in the column 2 wells by drawing them up and down in the pipet 15 times. Solutions (37 μL) were then transferred from column 2 to column 3 and mixed by being drawn up and down in the pipet 15 times. The process was repeated across the columns to column 12, and the last 37 μL of solution was discarded. Biotinylated Vitronectin solution (2.5) was then added (20 μL/well, 0.1 μg/well). The final volume was 100 μL total per well, and the concentrations (nM) of analytes in columns 1-12 respectively were as follows: 1000, 316, 100, 31.6, 10.0, 3.16, 1.00, 0.316, 0.100, 0.0316, 0.01, and 0.00316.
The plate was agitated for thorough mixing of the solutions, then covered and incubated at room temperature for 3 hours. The solutions were then discarded and the plate was washed 3 times with 170 μL/well of washing solution (2.2). NeutrAvidin-HRP solution (2.6) was then added (100 μL/well, 0.01 μg/well), cover, and the plate was incubated at room temperature for 30 minutes. The solutions in the wells were then discarded and the plate was washed 3 times with 170 μL/well of washing solution (2.2). Chemiluminescent Substrate solution (2.7) was then added to the plate (100 μL/well), and the luminescence was read using the Wallac Victor 1420 Multilabel Counter (PerkinElmer, Inc., Boston, Mass., USA). A plot of average luminescence vs. concentration was generated using KaleidaGraph (version 3.5) software and the IC50 values were calculated using the following formula: Max−Max*M0^m1/(m2^m1+M0^m1);m1=1;m2=1, where Max is the maximum luminescence observed.
The results are expressed in the table below, both in terms of the 50% inhibitory concentration (IC50) of each test compound and the ratio of 50% inhibitory concentration (IC50) of the test compound to that of the Hood et al. antagonist 4-[2-(3,4,5,6-tetrahydropyrimidin-2-ylamino)ethyloxy]benzoyl-2-(S)-aminoethylsulfonylamino-β-alanine.

Consider 9 molecules from US7300940B2, “Integrin α-v β-3 antagonists for use in imaging and therapy” (The United States of America, as represented by the …, priority 2004, dated 2007).

Where a name gives a salt, the structure may show the parent alone.

T1 sequence (P06756 31-889 limits assumed): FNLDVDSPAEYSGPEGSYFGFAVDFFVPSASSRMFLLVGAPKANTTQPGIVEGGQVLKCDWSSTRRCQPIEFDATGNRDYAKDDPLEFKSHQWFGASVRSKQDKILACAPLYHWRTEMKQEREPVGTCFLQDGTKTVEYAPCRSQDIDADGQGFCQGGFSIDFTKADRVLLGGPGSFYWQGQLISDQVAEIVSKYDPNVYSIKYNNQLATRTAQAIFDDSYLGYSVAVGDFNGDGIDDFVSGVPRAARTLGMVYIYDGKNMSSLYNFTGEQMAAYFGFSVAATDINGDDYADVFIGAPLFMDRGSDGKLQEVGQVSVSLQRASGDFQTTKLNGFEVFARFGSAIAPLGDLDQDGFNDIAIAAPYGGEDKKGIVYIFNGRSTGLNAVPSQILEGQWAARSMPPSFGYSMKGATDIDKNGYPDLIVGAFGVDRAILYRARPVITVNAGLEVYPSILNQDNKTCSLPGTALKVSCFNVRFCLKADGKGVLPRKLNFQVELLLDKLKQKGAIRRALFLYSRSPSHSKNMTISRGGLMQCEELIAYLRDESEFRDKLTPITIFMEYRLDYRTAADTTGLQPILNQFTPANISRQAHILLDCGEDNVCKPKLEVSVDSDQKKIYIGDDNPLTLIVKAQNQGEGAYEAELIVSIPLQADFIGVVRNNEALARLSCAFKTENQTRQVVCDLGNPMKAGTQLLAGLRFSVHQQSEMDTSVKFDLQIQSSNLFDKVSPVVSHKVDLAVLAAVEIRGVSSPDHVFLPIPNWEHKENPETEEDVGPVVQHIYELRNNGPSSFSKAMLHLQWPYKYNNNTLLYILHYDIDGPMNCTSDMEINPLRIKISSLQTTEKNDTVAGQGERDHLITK
T1 sequence (P06756 891-1048 limits assumed): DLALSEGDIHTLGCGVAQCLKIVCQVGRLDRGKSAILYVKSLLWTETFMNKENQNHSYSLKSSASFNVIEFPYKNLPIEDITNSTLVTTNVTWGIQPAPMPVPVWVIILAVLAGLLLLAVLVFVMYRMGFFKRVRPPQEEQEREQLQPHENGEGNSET
T1 sequence (P05106 27-788): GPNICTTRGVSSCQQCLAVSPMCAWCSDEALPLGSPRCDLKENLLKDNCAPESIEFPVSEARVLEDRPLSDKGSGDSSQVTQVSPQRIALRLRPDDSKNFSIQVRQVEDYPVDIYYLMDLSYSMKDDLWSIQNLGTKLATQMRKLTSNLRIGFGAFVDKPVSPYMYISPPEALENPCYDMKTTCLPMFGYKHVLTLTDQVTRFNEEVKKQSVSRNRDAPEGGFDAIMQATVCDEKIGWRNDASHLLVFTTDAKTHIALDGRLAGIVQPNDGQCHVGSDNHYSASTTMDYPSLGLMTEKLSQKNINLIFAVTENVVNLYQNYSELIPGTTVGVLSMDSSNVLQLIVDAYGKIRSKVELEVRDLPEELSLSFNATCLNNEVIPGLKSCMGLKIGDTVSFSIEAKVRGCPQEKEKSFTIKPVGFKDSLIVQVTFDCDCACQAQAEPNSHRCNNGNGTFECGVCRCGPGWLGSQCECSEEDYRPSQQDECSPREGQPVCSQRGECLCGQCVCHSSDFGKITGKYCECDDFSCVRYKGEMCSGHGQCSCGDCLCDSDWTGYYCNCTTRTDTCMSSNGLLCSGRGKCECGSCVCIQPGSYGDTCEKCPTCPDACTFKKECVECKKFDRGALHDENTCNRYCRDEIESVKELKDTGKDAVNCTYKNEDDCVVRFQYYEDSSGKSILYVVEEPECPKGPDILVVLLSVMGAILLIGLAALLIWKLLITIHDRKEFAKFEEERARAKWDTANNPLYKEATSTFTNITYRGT

As for `CCCCOC(=O)NCCCOC(=O)NCCS(=O)(=O)N[C@@H](CNC(=O)c1ccc(OCCNC2=NCCCN2)cc1)C(=O)O` [Example 5, 4-[2-(3,4,5,6-Tetrahydropyrimidin-2-ylamino)ethyloxy]benzoyl-2-(S)-[N-(3-butyloxycarbonylamino-propyl-1-carbamyl)]-aminoethylsulfonylamino-β-alanine], the IC50 (in general, the point on the concentration scale where inhibition reaches its midpoint) worked out at 1.02 ± 0.12 nM and the “IC50 Ratio Relative to Hood et al.” value turned out to be 11.2 ± 2.4.

Take `CCCCOC(=O)NCCCCOC(=O)NCCS(=O)(=O)N[C@@H](CNC(=O)c1ccc(OCCNC2=NCCCN2)cc1)C(=O)O` [Example 7, 4-[2-(3,4,5,6-Tetrahydropyrimidin-2-ylamino)ethyloxy]benzoyl-2-(S)-[N-(3-butyloxycarbonylamino-butyl-1-carbamyl)]-aminoethylsulfonylamino-β-alanine]: the half-maximal inhibitory concentration (IC50) was 1.34 ± 0.14 nM and the “IC50 Ratio Relative to Hood et al.” value stood at 10.8 ± 2.7. With `CC(C)(CN)COC(=O)NCCS(=O)(=O)N[C@@H](CNC(=O)c1ccc(OCCNC2=NCCCN2)cc1)C(=O)O` [Example 2, 4-[2-(3,4,5,6-Tetrahydropyrimidin-2-ylamino)ethyloxy]benzoyl-2-(S)-[N-(3-amino-neopenta-1-carbamyl)]-aminoethylsulfonylamino-β-alanine Hydrochloride], the half-maximal inhibitory concentration (IC50) came out at 2.94 ± 0.19 nM and the “IC50 Ratio Relative to Hood et al.” value is 7.0 ± 0.7.

Take `CCCCOC(=O)NCCOC(=O)NCCS(=O)(=O)N[C@@H](CNC(=O)c1ccc(OCCNC2=NCCCN2)cc1)C(=O)O` [Example 3, 4-[2-(3,4,5,6-Tetrahydropyrimidin-2-ylamino)ethyloxy]benzoyl-2-(S)-[N-(3-butyloxycarbonylamino-ethyl-1-carbamyl)]-aminoethylsulfonylamino-β-alanine]: the IC50 amounted to 1.7 ± 0.2 nM and the “IC50 Ratio Relative to Hood et al.” value was determined as 8.8 ± 3.5.

For `NCCS(=O)(=O)N[C@@H](CNC(=O)c1ccc(OCCNC2=NCCCN2)cc1)C(=O)O` [Hood et al., 4-[2-(3,4,5,6-tetrahydropyrimidin-2-ylamino)ethyloxy]benzoyl-2-(S)-aminoethylsulfonylamino-β-alanine, reference compound], the IC50 came to 14.1 ± 1.4 nM.

In the case of `NCCOC(=O)NCCS(=O)(=O)N[C@@H](CNC(=O)c1ccc(OCCNC2=NCCCN2)cc1)C(=O)O` [Example 4, 4-[2-(3,4,5,6-Tetrahydropyrimidin-2-ylamino)ethyloxy]benzoyl-2-(S)-[N-(3-amino-ethyl-1-carbamyl)]-aminoethylsulfonylamino-β-alanine], the IC50 is 3.64 ± 0.3 nM and the “IC50 Ratio Relative to Hood et al.” value is recorded as 4.3 ± 0.6.

In the case of `CCCCOC(=O)NCC(C)(C)COC(=O)NCCS(=O)(=O)N[C@@H](CNC(=O)c1ccc(OCCNC2=NCCCN2)cc1)C(=O)O` [Example 1, 4-[2-(3,4,5,6-Tetrahydropyrimidin-2-ylamino)ethyloxy]benzoyl-2-(S)-[N-(3-butyloxycarbonylamino-neopenta-1-carbamyl)]-aminoethylsulfonylamino-β-alanine], the 50% inhibitory concentration (IC50) was found to be 0.72 ± 0.08 nM and the “IC50 Ratio Relative to Hood et al.” value turned out to be 17.3 ± 4.7. The like results for `NCCCOC(=O)NCCS(=O)(=O)N[C@@H](CNC(=O)c1ccc(OCCNC2=NCCCN2)cc1)C(=O)O` [Example 6] were, in that order, 6.68 ± 0.54 nM and 3.6 ± 0.7.

Regarding `NCCCCOC(=O)NCCS(=O)(=O)N[C@@H](CNC(=O)c1ccc(OCCNC2=NCCCN2)cc1)C(=O)O` [Example 8, 4-[2-(3,4,5,6-Tetrahydropyrimidin-2-ylamino)ethyloxy]benzoyl-2-(S)-[N-(3-amino-butyl-1-carbamyl)]-aminoethylsulfonylamino-β-alanine], the IC50 is 3.13 ± 0.33 nM and the “IC50 Ratio Relative to Hood et al.” value came out at 1.3 ± 0.5.
